Measurements: patent US9402820B2, “Use of pyruvate or succinate to enhance the efficacy of a hypoxia activated prodrug for the treatment of tumors” (THE UNITED STATES OF AMERICA AS REPRESENTED BY THE …, priority 2011, dated 2016)

Experiments:
SCCVII solid tumors [1] = assay: Immunohistochemical analysis with hypoxia marker pimonidazole in SCC tumors; assay type: in vivo, mouse; details: control mice 21.1±1.4, n=5
Method: A hypoxia marker, pimonidazole, was given to tumor-bearing mice intravenously 30 minutes before excising tumors. The mice were euthanized, and tumor tissues were removed from mice. The tumor tissues were fixed with 4% paraformaldehyde and frozen using ultracold ethanol. The frozen tumors were sectioned to 10 μm thick using a cryostat, and the sections were thaw-mounted on glass slides. After blocking non-specific binding sites with Protein Block Serum-Free reagent (Dako North America Inc., Carpinteria, Calif.), the slides were covered by rabbit anti-pimonidazole antisera (Natural Pharmacia International, Inc., Burlington, Mass.; 1:250) overnight at 4° C. The sections were incubated with Alexa Fluor 555 anti-rabbit secondary antibody (Invitrogen, Carlsbad, Calif.; 1:500). Then they were mounted on Prolong Gold antifade reagent with DAPI (Invitrogen). Fluorescence microscopic observation was performed using an Axiovert 200 inverted fluorescent microscope (Carl Zeiss), and images of tissues were captured using Image-Pro Plus Ver. 4.0 imaging software. The pimonidazole positive area was quantified using Image J software.

SCCVII solid tumors [2] = assay: EPR imaging (EPRI) of tumor pO2 after i.v. pyruvate in SCC tumor-bearing mice; assay type: in vivo, mouse; details: for Median tumor pO2 value: before injection 11.8±1.3; for Percentage of hypoxic region (pO2<10 mmHg) in the tumors: before injection 39.7±9.8
Method: All animal experiments were carried out in compliance with the Guide for the care and use of laboratory animal resources (National Research Council, 1996) and approved by the National Cancer Institute Animal Care and Use Committee. Female C3H/Hen mice were supplied by the Frederick Cancer Research Center, Animal Production (Frederick, Md.). SCCVII solid tumors were formed by injecting 5×10^5 SCC cells subcutaneously into the right hind leg of C3H mice. Body weight measured before the experiments was 21-27 g. In EPRI and MRI measurements, mice were anesthetized by isoflurane (4% for induction and 2% for maintaining anesthesia) in medical air (750 mL/min) and positioned prone with their tumor-bearing legs placed inside the resonator. During the measurements, the breathing rate of the mice was monitored with a pressure transducer (SA Instruments Inc.) and maintained at 60±10 breaths per minute. Core body temperature was also monitored with a non-magnetic rectal temperature probe (FISO) and maintained at 37±1° C. with a flow of warm air. For administration of TAM and [1-^13C]pyruvate solution, a 30-gauge needle was cannulated into the tail vein and extended using polyethylene tubing (PE-10).
Technical details of the EPR scanner operating at 300 MHz, data acquisition based on the single-point imaging (SPI) modality, image reconstruction, and the oxygen mapping procedure were described previously (Matsumoto et al., Magn Reson Med, 55:1157-1163, 2006; and Matsumoto et al., J Clin Invest, 118:1965-1973, 2008). Isotonic [1-^13C]pyruvate solution (pH 7.4) was prepared by dissolving 30 μL of [1-^13C]pyruvic acid in 4.5 mL of alkaline solution containing 100 mg/L EDTA. After the mouse was placed in the resonator, TAM (OX063, GE Healthcare) was injected intravenously through the cannula placed in the tail vein. TAM was given as a 1.125 mmol/kg bolus followed by 0.04 mmol/kg/min continuous injection. After acquiring the first EPR data set, 1.15 mmol/kg bolus (300 μL of 96 mM) [1-^13C]pyruvate solution was injected intravenously through the cannula. EPRI measurements were carried out 30 minutes and 1 hour after [1-^13C]pyruvate injection. Then, the mouse was released. The mouse was anesthetized and canulated again, 1.125 mmol/kg TAM was injected to the mouse, and EPRI measurement was carried out 5 hours after the [1-^13C]pyruvate injection.
EPR signals were collected following the RF excitation pulses (60 ns, 80 W, 70° flip angle) using an analog digital converter (200 Msamples/s). EPR measurements were started 3 minutes after TAM injection, and it took 9 minutes to obtain a data set for a 3D image. The repetition time (TR) was 6.0 μs. The FIDs (free induction decays) were collected under a nested looping of the x, y, z gradients and each time point in the FID underwent phase modulation enabling 3D spatial encoding. In order to get reproducible values of T2* and to retain a more or less uniform image resolution, a set of 3 gradients was used, and data for corresponding images were collected in an interleaved fashion (Matsumoto et al., Magn Reson Med, 55:1157-1163, 2006). If the power spectrum of the pulse is uniform throughout the k-space for all the gradients used, the spatial resolution is simply defined by FOV (field of view) and the number of k-samples (elements in k-space).
Anatomical images of the tumor-bearing leg were obtained using 7 T MRI after the EPRI measurements. […] An identical parallel coil resonator (17 mm inner diameter and 25 mm long) with Q switch was used for both EPRI and MRI operating at 300 MHz (Matsumoto et al., J Clin Invest, 118:1965-1973, 2008).
MRI scans were conducted using a 7 T scanner controlled with ParaVision 5.0 (Bruker BioSpin MRI GmbH). […]

SCC tumor = assay: Tumor growth after X-irradiation (12 Gy) with [1-13C]pyruvate injection; assay type: in vivo, mouse; details: X-irradiation 12 Gy 30 minutes after [1-13C]pyruvate injection; X-irradiation without pyruvate 6-7 days
Source text: Mice were fixed in the specially designed jig for X-irradiation, by which mice were restricted from moving without anesthesia. X-irradiation (12 Gy) was delivered to tumor-bearing leg 6 days after SCC tumor implantation using a XRAD-320 (Precision X-ray Inc.).
Hypoxia is a critical factor that determines tumor resistance to radiotherapy and some kinds of chemotherapy. Although the pyruvate-induced hypoxia is transient, the decrease in oxygen concentration may limit the efficacy of cancer therapy, if the cancer treatments are provided immediately after MRI with hyperpolarized [1-^13C]pyruvate. To elucidate the effect of exogenously injected pyruvate on radiotherapy, tumor growth was monitored after X-irradiation with and without [1-^13C]pyruvate injection (FIG. 4). X-irradiation (12 Gy) without pyruvate administration suppressed the tumor growth for 6-7 days compared with non-treated control group which received neither X-irradiation nor pyruvate administration. […] Secondary mechanisms such as activation of hypoxia inducible transcription factor-1 signaling during the pyruvate-induced transient hypoxia might partially contribute to the long lasting effect of pyruvate on radiotherapy in addition to the direct effect of oxygen concentration at the time of radiation. […]

[3] = system: SCCVII (mouse squamous cell carcinoma) tumors; assay: SCCVII tumor growth with TH-302 alone, pyruvate alone or in combination; assay type: in vivo; details: daily for 3 days
Method: (§1) Mouse legs bearing tumors were prepared by subcutaneously injecting 5×10^5 SCCVII (mouse squamous cell carcinoma) cells or 1×10^6 HT29 (human colon cancer) cells to the hind leg of C3H or athymic nude mice, respectively. When tumor size became 400-500 mm^3, treatments were initiated. Mice were treated daily for 3 days with hypoxia-activated prodrug TH-302 (100 mg/kg/day, i.p.) alone, pyruvate (1.15 mmol/kg/day, i.v.) alone, or TH-302 injection 30 min. after pyruvate injection. Treatments were started on day 7 (SCCVII; FIG. 6A) or day 8 (HT29; FIG. 6B). […] Tumor growth (volume/size in mm^3) was measured daily by caliper.

[4] = system: HT29 (human colon cancer) tumors; assay: HT29 tumor growth with TH-302 alone or in combination with pyruvate; assay type: in vivo; details: TH-302 100 mg/kg/day i.p., pyruvate 1.15 mmol/kg/day i.v. 30 min before, daily for 3 days
Method: as §1

[5] = SCCVII, TH-302 100 mg/kg/day i.p., pyruvate 1.15 mmol/kg/day i.v. 30 min before

SMILES | Pimonidazole positive area in tumors (SCCVII solid tumors [1]; 1 hour after [1-13C]pyruvate injection) [%] | Pimonidazole positive area in tumors (SCCVII solid tumors [1]; 5 hours after [1-13C]pyruvate injection) [%] | median pO2 value in tumor (SCCVII solid tumors [2]; 1-2 hours after hyperpolarized [1-13C]pyruvate 1.15 mmol/kg i.v. bolus, control tumor group 11.7±0.7, mean±SEM, n=4) [mmHg] | hypoxic fraction (pixels with pO2<10 mm Hg) (SCCVII solid tumors [2]; 1-2 hours after hyperpolarized [1-13C]pyruvate 1.15 mmol/kg i.v., control tumors 37.1±5.6, mean±SEM, n=4) [%] | Median tumor pO2 value (SCCVII solid tumors [2]; 30 minutes after [1-13C]pyruvate 1.15 mmol/kg i.v., n=4) [mmHg] | decrease of tumor pO2 (SCCVII solid tumors [2]; 30 minutes after half dose (0.58 mmol/kg b. w.)) [%] | Percentage of hypoxic region (pO2<10 mmHg) in the tumors (SCCVII solid tumors [2]; 30 minutes after pyruvate 1.15 mmol/kg i.v.) [%] | Median tumor pO2 value (SCCVII solid tumors [2]; 1 hour after [1-13C]pyruvate 1.15 mmol/kg i.v., n=4) [mmHg] | Percentage of hypoxic region (pO2<10 mmHg) in the tumors (SCCVII solid tumors [2]; 1 hour after pyruvate 1.15 mmol/kg i.v.) [%] | Median tumor pO2 value (SCCVII solid tumors [2]; 5 hours after [1-13C]pyruvate 1.15 mmol/kg i.v., n=4) [mmHg] | Percentage of hypoxic region (pO2<10 mmHg) in the tumors (SCCVII solid tumors [2]; 5 hours after pyruvate 1.15 mmol/kg i.v.) [%] | delay in tumor growth (SCC tumor) [days] | Period of time until tumor becomes 2 times original tumor size [3, 5] [days] | Period of time until tumor becomes 3 times original tumor size [3, 5] [days] | effect on SCCVII tumor growth ([3]; treatment starting 7 days post-tumor implantation) | Period of time until tumor becomes 3 times original tumor size [4] [days] | Period of time until tumor becomes 4 times original tumor size [4] [days]
CC(=O)C(=O)O [pyruvate, 2-oxopropanoate] | 29.5±2.9 | 18.7±1.8 | 9.2±1.1 | 58.5±10.2 | 5.8±0.6 | 32 | 68.5±3.0 | 7.7±0.6 | 63.8±2.6 | 11.6±1.2 | 43.9±5.7 | 3 to 4 |  |  |  |  | 
Cn1c(COP(=O)(NCCBr)NCCBr)cnc1[N+](=O)[O-] [TH-302] |  |  |  |  |  |  |  |  |  |  |  |  | 3.4 | 5.4 | minor or small effect | 6.8 | 8.4
